# Test results as given in patent US20140315972A1, “RS)-2-(2-oxo-4-phenylpyrrolidin-1-yl)acetamide compound having modulatory activity with a commensurate effect, pharmaceutical substance (variants) and its application, composition (variants) thereof” (priority 2011, published 2014).
# Several values for one entry are separate records, joined by “and”; a condition that tells them apart may be missing. Equal entries are not always repeated. Marks after values point to notes of the source that are not given here.
# Key:
# mice [1] = details: animals; prior art Phenotropil products; cited from earlier work
# mice [2] = assay: Open field test; assay type: in vivo; details: for Distance covered during 1st min (horizontal motor activity) / Distance during 2nd min (horizontal motor activity) / Distance during 3rd min (horizontal motor activity) / Explorations during 2nd min / Explorations during 3rd min / Number of explorations (holes) during 1st min / Number of washings during 1st min / Total distance at 3 min (horizontal motor activity) / Total number of explorations at 3 min / Total number of visits to the center at 3 min / Total number of washings at 3 min / Visits to the center during 1st min / Visits to the center during 2nd min / Visits to the center during 3rd min / Washings during 2nd min / Washings during 3rd min / vertical motor activity, 1st min (Distance covered) / vertical motor activity, 2nd min / vertical motor activity, 3rd min / vertical motor activity, total at 3 min: mice
# Method: Study of the effect of Phenotropil (100, 200, 300 mg/kg) on motor activity and exploratory behavior by the open field test on mice (16-24 g) in comparison with olanzapine (1 mg/kg) is shown in Tables 5-5.4. Olanzapine at higher doses has sedative activity, so for comparison with Phenotropil, the drug was used only at a dose of 1 mg/kg. The drugs and distilled water to control groups were injected intraperitoneally 40 minutes prior to the study. […] This indicates the ability of the drug to reversibility, unlike olanzapine.
# rats [3] = assay: Formalin induced edema, topical application; assay type: in vivo
# Method: To identify and assess the anti-inflammatory action of Phenotropil, a standard technique was used; the carrageenan-induced paw edema in rats (Winter C. et al, 1962). Phenotropil at a dose of 100 mg/kg was administered intragastrically 60 minutes before carrageenan. Control animals received distilled water. Additionally, the topical application by method of formalin induced edema was investigated (subplantar administration of 0.1 ml of 2% formalin solution). Phenotropil for topical use was prepared (1:1) on the standard ointment base carrier at 100 mg/kg of body weight for each animal (150-220 g). The preparation was rubbed in the leg and a gauze patch was applied for 2 hours and 1 hour before the induction of inflammation.
# mice [4] = assay: Haloperidol-induced catalepsy; assay type: in vivo; details: for decrease of catalepsy severity vs control: 300 mg/kg; for Catalepsy: mice
# Method: Duration of catalepsy was measured in seconds, after 60, 120 and 180 minutes after the drug administration. Phenotropil was administered intraperitoneally at doses of 50, 100 and 300 mg/kg 15 minutes after haloperidol 0.5 mg/kg. Haloperidol induced catalepsy growing over time. […] At a dose of 50 mg/kg, duration of the catalepsy after 180 min was only 4.8 seconds as compared to controls (63.4 seconds). […] Phenotropil markedly counteracts haloperidol-induced catalepsy, indicating its antiparkinsonian activity.
# rats [5] = assay: Alcohol dependence and abstinence, free choice of water and alcohol; assay type: in vivo
# Text: The antitoxic, sobering and anticraving, activity, as well as the effect of Phenotropil in abstinence was studied on white outbred male rats (weighing 180-220 g) and male mice (weighing 18-24 g) in chronic alcoholism. […] Alcoholized rats after four months of alcoholism and treatment with Phenotropilom voluntarily give up intake of alcohol (anticraving activity) with free choice of water and alcohol (Table 11).
# [6] = abstinent rats, 7-month alcoholism, 200 mg/kg, day 3
# [7] = abstinent rats, 7-month alcoholism, 200 mg/kg, day 4
# [8] = after-effect of 45-day course 100 mg/kg, 1st day
# [9] = after-effect of 45-day course 100 mg/kg, 2nd day
# [10] = after-effect of 45-day course 100 mg/kg, 3rd day
# [11] = rats, 4-month alcoholism, 100 mg/kg, 45th day of administration
smiles,measurement,setting,value
"NC(=O)CN1CC(c2ccccc2)CC1=O (racemic) [Compound 1, (RS)-2-(2-oxo-4-phenylpyrrolidine-1-yl)acetamide]",LD50,mice [1],800 mg/kg
same,increase of horizontal locomotor activity,mice [2]; 100 mg/kg,112.2%
same,increase of number of visits to the center vs control,mice [2]; 100 mg/kg,111%
same,increase of total exploratory behavior index,mice [2]; 100 mg/kg,50%
same,increase of total vertical locomotor activity,mice [2]; 100 mg/kg,237.5%
same,reduction of total index of washes vs control,mice [2]; 100 mg/kg,25%
same,decrease of total exploratory behavior index,mice [2]; 200 mg/kg,32%
same,increase of horizontal locomotor activity,mice [2]; 200 mg/kg,151.8%
same,increase of number of visits to the center vs control,mice [2]; 200 mg/kg,155%
same,vertical activity over three minutes vs control,mice [2]; 200 mg/kg,−6.3%
same,increase of horizontal locomotor activity,mice [2]; 300 mg/kg,99.5%
same,increase of number of visits to the center vs control,mice [2]; 300 mg/kg,133%
same,increase of total index of explored holes,mice [2]; 300 mg/kg,27%
same,number of rearings at the first minute vs control,mice [2]; 300 mg/kg,−75%
same,total number of rearings for 3 minutes vs control,mice [2]; 300 mg/kg,+56%
same,Distance covered during 1st min (horizontal motor activity),mice [2]; 100 mg/kg i.p.,23.7 ± 5*^
same,Distance during 2nd min (horizontal motor activity),mice [2]; 100 mg/kg i.p.,22.5 ± 3.1
same,Distance during 3rd min (horizontal motor activity),mice [2]; 100 mg/kg i.p.,44 ± 10.7
same,Explorations during 2nd min,mice [2]; 100 mg/kg i.p.,1.5 ± 0.4
same,Explorations during 3rd min,mice [2]; 100 mg/kg i.p.,1.3 ± 0.7
same,Number of explorations (holes) during 1st min,mice [2]; 100 mg/kg i.p.,0.5 ± 0.3
same,Number of washings during 1st min,mice [2]; 100 mg/kg i.p.,0.2 ± 0.2
same,Total distance at 3 min (horizontal motor activity),mice [2]; 100 mg/kg i.p.,90.2 ± 8.7
same,Total number of explorations at 3 min,mice [2]; 100 mg/kg i.p.,3.3 ± 0.9
same,Total number of visits to the center at 3 min,mice [2]; 100 mg/kg i.p.,3.9 ± 0.6
same,Total number of washings at 3 min,mice [2]; 100 mg/kg i.p.,0.3 ± 0.2^
same,Visits to the center during 1st min,mice [2]; 100 mg/kg i.p.,0.7 ± 0.5
same,Visits to the center during 2nd min,mice [2]; 100 mg/kg i.p.,2.2 ± 0.8
same,Visits to the center during 3rd min,mice [2]; 100 mg/kg i.p.,1 ± 0.5
same,Washings during 2nd min,mice [2]; 100 mg/kg i.p.,0.1 ± 0.2^
same,Washings during 3rd min,mice [2]; 100 mg/kg i.p.,0 ± 0
same,"vertical motor activity, 1st min (Distance covered)",mice [2]; 100 mg/kg i.p.,2.3 ± 1.1
same,"vertical motor activity, 2nd min",mice [2]; 100 mg/kg i.p.,3.8 ± 1.7
same,"vertical motor activity, 3rd min",mice [2]; 100 mg/kg i.p.,4.7 ± 1.6
same,"vertical motor activity, total at 3 min",mice [2]; 100 mg/kg i.p.,10.8 ± 4.2
same,Distance covered during 1st min (horizontal motor activity),mice [2]; 200 mg/kg i.p.,31.7 ± 2.8
same,Distance during 2nd min (horizontal motor activity),mice [2]; 200 mg/kg i.p.,41.8 ± 7.0
same,Distance during 3rd min (horizontal motor activity),mice [2]; 200 mg/kg i.p.,33.5 ± 4.7
same,Explorations during 2nd min,mice [2]; 200 mg/kg i.p.,0.8 ± 0.5
same,Explorations during 3rd min,mice [2]; 200 mg/kg i.p.,0.5 ± 0.5
same,Number of explorations (holes) during 1st min,mice [2]; 200 mg/kg i.p.,0.2 ± 0.2
same,Number of washings during 1st min,mice [2]; 200 mg/kg i.p.,0 ± 0
same,Total distance at 3 min (horizontal motor activity),mice [2]; 200 mg/kg i.p.,107 ± 11.5
same,Total number of explorations at 3 min,mice [2]; 200 mg/kg i.p.,1.5 ± 0.9
same,Total number of visits to the center at 3 min,mice [2]; 200 mg/kg i.p.,4.7 ± 0.7
same,Visits to the center during 1st min,mice [2]; 200 mg/kg i.p.,0.3 ± 0.2
same,Visits to the center during 2nd min,mice [2]; 200 mg/kg i.p.,2.7 ± 0.4
same,Visits to the center during 3rd min,mice [2]; 200 mg/kg i.p.,1.7 ± 0.4
same,Washings during 2nd min,mice [2]; 200 mg/kg i.p.,0 + 0 *
same,Washings during 3rd min,mice [2]; 200 mg/kg i.p.,0 ± 0
same,"vertical motor activity, 1st min (Distance covered)",mice [2]; 200 mg/kg i.p.,0 ± 0
same,"vertical motor activity, 2nd min",mice [2]; 200 mg/kg i.p.,1.3 ± 0.7
same,"vertical motor activity, 3rd min",mice [2]; 200 mg/kg i.p.,1.7 ± 0.7
same,"vertical motor activity, total at 3 min",mice [2]; 200 mg/kg i.p.,3.0 ± 1.3
same,Distance covered during 1st min (horizontal motor activity),mice [2]; 300 mg/kg i.p.,29.7 ± 12.3
same,Distance during 2nd min (horizontal motor activity),mice [2]; 300 mg/kg i.p.,27.2 ± 10.2
same,Distance during 3rd min (horizontal motor activity),mice [2]; 300 mg/kg i.p.,28 ± 6.4
same,Explorations during 2nd min,mice [2]; 300 mg/kg i.p.,1.5 ± 0.8
same,Explorations during 3rd min,mice [2]; 300 mg/kg i.p.,1.0 ± 0.8
same,Number of explorations (holes) during 1st min,mice [2]; 300 mg/kg i.p.,0.3 ± 0.2
same,Number of washings during 1st min,mice [2]; 300 mg/kg i.p.,0.2 ± 0.2
same,Total distance at 3 min (horizontal motor activity),mice [2]; 300 mg/kg i.p.,84.8 ± 28.0
same,Total number of explorations at 3 min,mice [2]; 300 mg/kg i.p.,2.8 ± 1.4
same,Total number of visits to the center at 3 min,mice [2]; 300 mg/kg i.p.,4.2 ± 0.8
same,Total number of washings at 3 min,mice [2]; 300 mg/kg i.p.,0.2 ± 0.2
same,Visits to the center during 1st min,mice [2]; 300 mg/kg i.p.,1.2 ± 0.4
same,Visits to the center during 2nd min,mice [2]; 300 mg/kg i.p.,1.3 ± 0.5
same,Visits to the center during 3rd min,mice [2]; 300 mg/kg i.p.,1.7 ± 0.5
same,Washings during 2nd min,mice [2]; 300 mg/kg i.p.,0 ± 0
same,Washings during 3rd min,mice [2]; 300 mg/kg i.p.,0 ± 0
same,"vertical motor activity, 1st min (Distance covered)",mice [2]; 300 mg/kg i.p.,0.3 ± 0.2
same,"vertical motor activity, 2nd min",mice [2]; 300 mg/kg i.p.,2 ± 1.2
same,"vertical motor activity, 3rd min",mice [2]; 300 mg/kg i.p.,2.7 ± 1.1
same,"vertical motor activity, total at 3 min",mice [2]; 300 mg/kg i.p.,5.0 ± 1.8
same,shortening of inflammation vs control,rats [3]; topical 100 mg/kg before formalin,64.5%
same,Effect on formalin edema vs control (100),"rats [3]; topical 100 mg/kg, 2 hours before formalin",−79.9%
same,decrease of catalepsy severity vs control,mice [4]; 180 minutes,decreased threefold
same,decrease of catalepsy severity vs control,mice [4]; after the 60 min point,2.6 times
same,Catalepsy,"mice [4]; haloperidol 0.5 mg/kg + 50 mg/kg i.p., 120 min",8.5 ± 3.5 s
same,Catalepsy,"mice [4]; haloperidol 0.5 mg/kg + 50 mg/kg i.p., 180 min, listed as Phenotropil",4.8 s and 4.8 ± 2.1 s
same,Catalepsy,"mice [4]; haloperidol 0.5 mg/kg + 100 mg/kg i.p., 120 min",2.0 ± 1.0 s
same,Catalepsy,"mice [4]; haloperidol 0.5 mg/kg + 100 mg/kg i.p., 180 min",0.0 ± 0.0 s
same,Catalepsy,"mice [4]; haloperidol 0.5 mg/kg + 300 mg/kg i.p., 60 min",6.6 ± 1.9 s
same,Catalepsy,"mice [4]; haloperidol 0.5 mg/kg + 300 mg/kg i.p., 120 min",10.6 ± 4.5 s
same,Catalepsy,"mice [4]; haloperidol 0.5 mg/kg + 300 mg/kg i.p., 180 min",21.4 ± 8.4 s
same,Alcohol consumption,rats [5]; [6],4.8 ± 0.8 mL/day
same,Alcohol consumption vs control,rats [5]; [6],−58.6%
same,Alcohol consumption,rats [5]; [7],2.4 ± 0.7 mL/day
same,Alcohol consumption vs control,rats [5]; [7],−74.0%
same,Alcohol consumption,"rats [5]; abstinent rats, 7-month alcoholism, 200 mg/kg, day 14",0.0 ** ml/day
same,Alcohol consumption,rats [5]; [8],3.3 ± 1.1 mL/day
same,Water consumption,rats [5]; [8],26.7 ± 3.9 mL/day
same,Alcohol consumption,rats [5]; [9],0.0 ** ml/day
same,Water consumption,rats [5]; [9],20.2 ± 3.3 mL/day
same,Alcohol consumption,rats [5]; [10],0.0 ** ml/day
same,Water consumption,rats [5]; [10],21.2 ± 3.5 mL/day
same,Alcohol consumption,rats [5]; [11],10.5 ± 4.2 mL/day
same,Water consumption,rats [5]; [11],24.0 ± 5.9 mL/day
